Laboratory results from paper PMC10709409, “Cryo-EM structures of human organic anion transporting polypeptide OATP1B1” (Cell Research, 2023).

Assays:
OATP1B1 [1] = target: T1, OATP1B1 (Homo sapiens, UniProt Q9Y6L6); parameters: gene SLCO1B1
T1 sequence (Q9Y6L6 1-691): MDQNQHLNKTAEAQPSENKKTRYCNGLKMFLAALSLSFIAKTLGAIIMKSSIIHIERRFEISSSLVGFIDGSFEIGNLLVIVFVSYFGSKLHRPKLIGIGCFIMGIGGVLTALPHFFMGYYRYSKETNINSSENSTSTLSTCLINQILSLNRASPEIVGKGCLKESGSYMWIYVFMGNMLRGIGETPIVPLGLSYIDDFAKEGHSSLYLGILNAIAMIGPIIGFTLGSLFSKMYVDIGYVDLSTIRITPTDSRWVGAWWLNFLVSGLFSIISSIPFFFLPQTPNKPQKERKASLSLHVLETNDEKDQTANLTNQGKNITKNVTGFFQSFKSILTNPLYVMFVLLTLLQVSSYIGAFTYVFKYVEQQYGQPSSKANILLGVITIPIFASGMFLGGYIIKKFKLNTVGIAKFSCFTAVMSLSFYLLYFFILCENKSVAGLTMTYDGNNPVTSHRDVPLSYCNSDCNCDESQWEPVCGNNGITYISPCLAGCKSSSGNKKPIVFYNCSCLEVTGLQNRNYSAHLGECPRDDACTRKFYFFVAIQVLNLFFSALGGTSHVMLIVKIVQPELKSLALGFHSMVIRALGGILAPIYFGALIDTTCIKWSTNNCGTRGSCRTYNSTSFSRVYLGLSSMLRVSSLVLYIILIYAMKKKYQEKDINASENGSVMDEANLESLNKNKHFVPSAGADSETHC

OATP1B1 [2] = target: T1, OATP1B1; assay: cryo-EM structure (outward-open, […] Å); also cell DCF uptake assay; format: binding; parameters: gene SLCO1B1; human OATP1B1 with C-terminal tandem His and Flag tags
OATP1B1 [3] = target: T1, OATP1B1; assay: cryo-EM structure (inward-open, […] Å); also [3H]-E3S proteoliposome counterflow and DCF uptake inhibition; format: binding; parameters: gene SLCO1B1; human OATP1B1 with C-terminal tandem His and Flag tags

Structure (SMILES)	cryo-EM structure (outward-open, 3.73 Å); also DCF uptake inhibition in HEK293T (OATP1B1 [1])	also measured
C=CC1=C(C)/C(=C/c2[nH]c(Cc3[nH]c(/C=C4\NC(=O)C(C)=C4C=C)c(C)c3CCC(=O)O)c(CCC(=O)O)c2C)NC1=O [B, bilirubin]	Bilirubin and simeprevir occupy the major pocket located in the central cavity, while DCF binds to the minor pocket	
O=C1OC2(c3cc(Cl)c(O)cc3Oc3cc(O)c(Cl)cc32)c2ccccc21 [D, 2′,7′-dichlorofluorescein]		cryo-EM structure (outward-open, 2.92 Å); also cell DCF uptake assay (OATP1B1 [2]): DCF extends towards a minor hydrophilic pocket within the interior of the CTD by forming hydrogen-bond interactions with N544 and S548
C[C@]12CC[C@H]3c4ccc(OS(=O)(=O)O)cc4CC[C@@H]3[C@@H]1CCC2=O [E, estrone-3-sulfate]		cryo-EM structure (inward-open, 3.2 Å); also [3H]-E3S proteoliposome counterflow (OATP1B1 [3]): The EM density of E3S in OATP1B1–Ein is unambiguously resolved, allowing us to discern the pose of the E3S
COc1ccc2c(O[C@@H]3C[C@H]4C(=O)N[C@]5(C(=O)NS(=O)(=O)C6CC6)C[C@H]5/C=C\CCCCN(C)C(=O)[C@@H]4C3)cc(-c3nc(C(C)C)cs3)nc2c1C [S, simeprevir]	Bilirubin and simeprevir occupy the major pocket located in the central cavity, while DCF binds to the minor pocket	
